Several values for one entry are separate records, joined by “and”; a condition that tells them apart may be missing. Equal entries are not always repeated. Entries after “also recorded” stand apart in the source; their conditions may differ. Where two headings read alike, the source gives them in different places.
What was measured:
DC-SIGN S-ECD = biological target: T1, DC-SIGN S-ECD (Homo sapiens, UniProt Q9NNX6); test: SPR direct interaction assay on oriented DC-SIGN S-ECD surface; type: binding; settings: for Kd: SPR direct interaction, oriented tetrameric DC-SIGN ECD surface, apparent Kd
T1 construct: The ECD of DC-SIGN (residues 66–404) was overexpressed and purified as previously described; made in house
T1 sequence (Q9NNX6 66-404): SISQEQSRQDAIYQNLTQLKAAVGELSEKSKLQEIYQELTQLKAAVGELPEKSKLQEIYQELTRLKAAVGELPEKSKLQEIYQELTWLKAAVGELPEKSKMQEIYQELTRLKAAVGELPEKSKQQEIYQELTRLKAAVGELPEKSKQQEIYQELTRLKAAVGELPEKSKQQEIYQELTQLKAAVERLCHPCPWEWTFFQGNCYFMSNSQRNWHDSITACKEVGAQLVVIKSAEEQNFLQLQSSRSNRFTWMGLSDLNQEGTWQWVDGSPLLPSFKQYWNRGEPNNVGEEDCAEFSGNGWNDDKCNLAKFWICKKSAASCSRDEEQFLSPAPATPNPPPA
How it was run: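 Tetrameric DC-SIGN ECD carrying an N-terminal StrepTagII was captured in oriented form on streptactin (2,500–3,000 RU), with a streptactin-only control cell. Glycoclusters were injected at increasing concentrations (30 μL/min) in Tris pH 8 buffer with 150 mM NaCl and 4 mM CaCl2. Apparent Kd from a 1:1 fit reflects binding to the whole surface.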

[1] = system: moDCs co-cultured with gp100-specific T cells; test: Antigen presentation by moDCs to gp100-specific T cells (IFNγ ELISA); type: cell-based, human; settings: 20 μM conjugate, 30 min pulse, overnight co-culture
Experimental: Lastly, antigen presentation was determined in a human T cell antigen presentation model (Figure 5D). In this assay, the potency of DCs to present the internalized gp100 antigen on the cell surface to gp100-specific T cells is analyzed. The IFNγ secretion of activated T cells upon recognition of the cell surface presented gp100 is measured. Day 5 moDCs were stimulated for 30 min, as the internalization was relatively fast, with the glycopeptides at the assay-optimized concentration of 20 μM (Supplementary Figure 1H). The constructs were washed away before overnight co-culture with gp100-specific T cells. […] The obstruction of antigen presentation was primarily seen with the B6-gp100-TLR7L contradicting the assumption that the best binding constructs will simultaneously maximize T cell activation. […]
Immature day 5 moDCs were seeded in 96-well plates (Greiner) at 50·10^3 cells/well and incubated with 20 μM of the different gp100-conjugates in the presence or absence of the TLR4 ligand LPS (10 ng/mL) or the TLR7 ligand Imiquimod (2.5 μg/mL). […] IFNγ in the supernatant was measured by sandwich ELISA according to the manufacturer's protocol (Biosource), and measured by spectrophotometric analysis on the iMarkTM Microplate Absorbance Reader (Bio-RAD) at 450 nm.

DC-SIGN on moDC = test: Binding of biotinylated mannoside library to moDCs by flow cytometry; type: cell-based, human; settings: 10 μM biotinylated cluster, 30 min at 4°C, streptavidin staining
Experimental: Next, we assessed the binding of our clusters to cellular DC-SIGN using moDCs (Figure 3B, Supplementary Figure 1B). To this end, binding of the clusters a1–a6, b1–b6, c1–c6, d1–d6, and e1–e6, decorated with a biotin handle, was determined by flow cytometry. Clusters were bound to moDCs for 30 min at 4°C. By staining using fluorophore-conjugated streptavidin and washing at 4°C, the bound clusters could be quantified by flow cytometry. […] In control experiments ligand binding to DC-SIGN was inhibited using a blocking anti-DC-SIGN antibody (Supplementary Figure 1C).
Approximately 10^5 day 5 moDCs were washed and resuspended in 100 μL culture medium (pre-cooled to 4°C). 20 μg/mL AZN-D1 (anti-DC-SIGN, in house Geijtenbeek et al., [2002]) or purified mouse anti-human CD206 antibody (Clone 19.2, BD Bioscience) was added to the moDCs and pre-incubated for 45 min on ice. Subsequently, 10 μM of the biotinylated mannoside clusters or 1 μg/mL of Lewis^Y-conjugated polyacrylamide (positive control) was added, and incubated for 30 min at 4°C. Cells were then washed with pre-cooled PBS (4°C), and stained with Alexa647-labeled streptavidin (Invitrogen^TM) in PBS supplemented with 0.5% BSA and 0.02% NaN3 (PBA) for 30 min at 4°C. Upon washing in ice-cold PBA and fixation in PBS with 0.5% PFA, the fluorescence was measured by flow cytometry (CyAn™ ADP with Summit™ Software), and further analyzed using FlowJo v10.

moDCs = test: Internalization of biotinylated hexavalent clusters by moDCs (flow cytometry); type: cell-based, human
How it was run: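 Immature day-5 moDCs (half gently pre-fixed with 1% PFA) loaded with 20 μM biotinylated clusters for 1 h on ice, washed, then shifted to 37°C; samples taken at time points. Surface retention read by Streptavidin-Alexa647 flow cytometry; parallel run used clusters pre-complexed with pHrodo-Avidin (2:1, 15 min, 37°C).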

SMILES	decrease of DC-SIGN affinity on conjugation to gp100 or gp100-TLR7L (factor) (DC-SIGN S-ECD; Kd-app of conjugate vs unconjugated cluster)	Kd (DC-SIGN S-ECD; Kdapp) [nM]	antigen presentation (IFNγ release of activated gp100-specific T cells) [1]	binding affinity for DC-SIGN relative to B6 (fold lower) (DC-SIGN S-ECD) [fold]	Kd (DC-SIGN S-ECD; read-out: Kdapp)	binding to DC-SIGN on moDC (DC-SIGN on moDC)	internalization by moDCs (loss of surface streptavidin signal) (moDCs; 20 μM cluster, live moDCs)	uptake by immature moDCs (moDCs; after 30 min at 37°C, 20 μM cluster) [%]	internalization by moDCs (pHrodo-avidin fluorescence increase) (moDCs; clusters pre-complexed with pH-sensitive dye)
CCCCOc1nc(N)c2[nH]c(=O)n(Cc3ccc(C(=O)NCCOCCOCC(=O)NCCCC[C@H](NC(=O)CNC(=O)[C@H](CCCNC(=N)N)NC(=O)[C@H](Cc4c[nH]c5ccccc45)NC(=O)[C@H](CC)NC(=O)[C@H](CC(=O)O)NC(=O)[C@H](CC(C)C)NC(=O)[C@H](CCCNC(=N)N)NC(=O)[C@H](CCC(N)=O)NC(=O)[C@H](C)NC(=O)[C@H](CCC(=O)O)NC(=O)[C@@H](NC(=O)[C@H](Cc4c[nH]c5ccccc45)NC(=O)[C@H](CCC(=O)O)NC(=O)[C@@H]4CCCN4C(=O)[C@H](Cc4ccc(O)cc4)NC(=O)[C@H](CC(C)C)NC(=O)[C@H](CCC(N)=O)NC(=O)[C@H](CCCNC(=N)N)NC(=O)[C@H](CC(N)=O)NC(=O)[C@H](C)NC(=O)[C@@H](NC(=O)[C@@H](NC(=O)[C@@H]4CCCN4C(=O)CNC(=O)[C@@H]4CCCN4C(=O)[C@H](CCC(=O)O)NC(=O)[C@H](CC(C)C)NC(=O)[C@H](Cc4ccc(O)cc4)NC(=O)[C@@H](NC(=O)[C@H](Cc4c[nH]cn4)NC(=O)[C@@H](NC(=O)[C@@H](NC(=O)[C@H](CCCCn4cc(CCC(=O)NCCCC[C@H](NC(=O)CNC(=O)[C@H](CCCCn5cc(CO[C@H]6O[C@H](CO[C@H]7O[C@H](CO)[C@@H](O)[C@H](O)[C@@H]7O)[C@@H](O)[C@H](O[C@H]7O[C@H](CO)[C@@H](O)[C@H](O)[C@@H]7O)[C@@H]6O)nn5)NC(=O)[C@H](CCCCn5cc(CO[C@H]6O[C@H](CO[C@H]7O[C@H](CO)[C@@H](O)[C@H](O)[C@@H]7O)[C@@H](O)[C@H](O[C@H]7O[C@H](CO)[C@@H](O)[C@H](O)[C@@H]7O)[C@@H]6O)nn5)NC(=O)[C@H](CCCCn5cc(CO[C@H]6O[C@H](CO[C@H]7O[C@H](CO)[C@@H](O)[C@H](O)[C@@H]7O)[C@@H](O)[C@H](O[C@H]7O[C@H](CO)[C@@H](O)[C@H](O)[C@@H]7O)[C@@H]6O)nn5)NC(=O)[C@H](CCCCn5cc(CO[C@H]6O[C@H](CO[C@H]7O[C@H](CO)[C@@H](O)[C@H](O)[C@@H]7O)[C@@H](O)[C@H](O[C@H]7O[C@H](CO)[C@@H](O)[C@H](O)[C@@H]7O)[C@@H]6O)nn5)NC(=O)[C@H](CCCCn5cc(CO[C@H]6O[C@H](CO[C@H]7O[C@H](CO)[C@@H](O)[C@H](O)[C@@H]7O)[C@@H](O)[C@H](O[C@H]7O[C@H](CO)[C@@H](O)[C@H](O)[C@@H]7O)[C@@H]6O)nn5)NC(=O)[C@H](CCCCn5cc(CO[C@H]6O[C@H](CO[C@H]7O[C@H](CO)[C@@H](O)[C@H](O)[C@@H]7O)[C@@H](O)[C@H](O[C@H]7O[C@H](CO)[C@@H](O)[C@H](O)[C@@H]7O)[C@@H]6O)nn5)NC(C)=O)C(N)=O)nn4)NC(C)=O)C(C)C)[C@@H](C)O)[C@@H](C)O)C(C)C)[C@@H](C)O)[C@@H](C)O)C(N)=O)cc3)c2n1 [E6-gp100-TLR7L]	about 10	31000	increased T cell activation; also recorded: strongest antigen presentation						
CC(=O)N[C@@H](CCCCn1cc(CO[C@H]2O[C@H](CO[C@H]3O[C@H](CO)[C@@H](O)[C@H](O)[C@@H]3O)[C@@H](O)[C@H](O[C@H]3O[C@H](CO)[C@@H](O)[C@H](O)[C@@H]3O)[C@@H]2O)nn1)C(=O)N[C@@H](CCCCn1cc(CO[C@H]2O[C@H](CO[C@H]3O[C@H](CO)[C@@H](O)[C@H](O)[C@@H]3O)[C@@H](O)[C@H](O[C@H]3O[C@H](CO)[C@@H](O)[C@H](O)[C@@H]3O)[C@@H]2O)nn1)C(=O)N[C@@H](CCCCn1cc(CO[C@H]2O[C@H](CO[C@H]3O[C@H](CO)[C@@H](O)[C@H](O)[C@@H]3O)[C@@H](O)[C@H](O[C@H]3O[C@H](CO)[C@@H](O)[C@H](O)[C@@H]3O)[C@@H]2O)nn1)C(=O)N[C@@H](CCCCn1cc(CO[C@H]2O[C@H](CO[C@H]3O[C@H](CO)[C@@H](O)[C@H](O)[C@@H]3O)[C@@H](O)[C@H](O[C@H]3O[C@H](CO)[C@@H](O)[C@H](O)[C@@H]3O)[C@@H]2O)nn1)C(=O)N[C@@H](CCCCn1cc(CO[C@H]2O[C@H](CO[C@H]3O[C@H](CO)[C@@H](O)[C@H](O)[C@@H]3O)[C@@H](O)[C@H](O[C@H]3O[C@H](CO)[C@@H](O)[C@H](O)[C@@H]3O)[C@@H]2O)nn1)C(=O)N[C@@H](CCCCn1cc(CO[C@H]2O[C@H](CO[C@H]3O[C@H](CO)[C@@H](O)[C@H](O)[C@@H]3O)[C@@H](O)[C@H](O[C@H]3O[C@H](CO)[C@@H](O)[C@H](O)[C@@H]3O)[C@@H]2O)nn1)C(=O)NCC(=O)N[C@@H](CCCCN)C(N)=O [E6]				3	2780 nM and 2700 nM	did not observe an increase in binding	remains longer at the surface	25	endocytosed at lower rate

— PMC6787163, “Systematic Dual Targeting of Dendritic Cell C-Type Lectin Receptor DC-SIGN and TLR7 Using a Trifunctional Mannosylated Antigen” (Frontiers in Chemistry, 2019)
